Inconclusive results and toxic doses are left out. No stated cut-off is given here; in the data, active means T/C of 150% or more; inactive means T/C below 125%.
Tested on: L1210 leukemia ip in BDF1 mice, survival T/C
Test: NCI In Vivo Anticancer Drug Screen. Data for tumor model L1210 Leukemia (intraperitoneal) in B6D2F1 (BDF1) mice
Details: endpoint: mean survival time, higher = longer survival
Procedure, shortened: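 Read-out is survival time, reported as the treated-group measurement over the vehicle-control measurement.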

[1] = dose: 100.0 mg/kg/injection, schedule: Q01DX009 (ip), vehicle: saline
[2] = dose: 100.0 mg/kg/injection, schedule: Q04DX003 (ip), vehicle: saline
[3] = dose: 200.0 mg/kg/injection, schedule: Q01DX009 (ip), vehicle: saline
[4] = dose: 200.0 mg/kg/injection, schedule: Q04DX003 (ip), vehicle: saline
[5] = dose: 400.0 mg/kg/injection, schedule: Q01DX009 (ip), vehicle: saline
[6] = dose: 400.0 mg/kg/injection, schedule: Q04DX003 (ip), vehicle: saline
[7] = dose: 100.0 mg/kg/injection, schedule: Q01DX009 (ip), vehicle: Klucel (hydroxypropylcellulose) (HPC)
[8] = dose: 100.0 mg/kg/injection, schedule: Q04DX003 (ip), vehicle: Klucel (hydroxypropylcellulose) (HPC)
[9] = dose: 200.0 mg/kg/injection, schedule: Q01DX009 (ip), vehicle: Klucel (hydroxypropylcellulose) (HPC)
[10] = dose: 200.0 mg/kg/injection, schedule: Q04DX003 (ip), vehicle: Klucel (hydroxypropylcellulose) (HPC)
[11] = dose: 400.0 mg/kg/injection, schedule: Q01DX009 (ip), vehicle: Klucel (hydroxypropylcellulose) (HPC)
[12] = dose: 400.0 mg/kg/injection, schedule: Q04DX003 (ip), vehicle: Klucel (hydroxypropylcellulose) (HPC)
[13] = dose: 100.0 mg/kg/injection, schedule: Q01DX001 (ip), vehicle: carboxymethylcellulose (CMC)
[14] = dose: 200.0 mg/kg/injection, schedule: Q01DX001 (ip), vehicle: carboxymethylcellulose (CMC)
[15] = dose: 400.0 mg/kg/injection, schedule: Q01DX001 (ip), vehicle: carboxymethylcellulose (CMC)
[16] = dose: 50.0 mg/kg/injection, schedule: Q01DX009 (ip), vehicle: saline with Tween-80
[17] = dose: 100.0 mg/kg/injection, schedule: Q01DX009 (ip), vehicle: saline with Tween-80
[18] = dose: 100.0 mg/kg/injection, schedule: Q04DX003 (ip), vehicle: saline with Tween-80
[19] = dose: 200.0 mg/kg/injection, schedule: Q01DX009 (ip), vehicle: saline with Tween-80
[20] = dose: 200.0 mg/kg/injection, schedule: Q04DX003 (ip), vehicle: saline with Tween-80
[21] = dose: 400.0 mg/kg/injection, schedule: Q04DX003 (ip), vehicle: saline with Tween-80

Measured: T/C

COc1ccc(N=C2OC(=O)c3ccccc32)cc1
inactive: [1] 91 % of control | [2] 94 % of control | [3] 100 % of control | [4] 103 % of control | [5] 89 % of control | [6] 92 % of control

NC(=O)c1ccccc1Cl
inactive: dose: 100.0 mg/kg/injection, schedule: Q01DX001 (ip), vehicle: saline with Tween-80 104 % of control | dose: 100.0 mg/kg/injection, schedule: Q01DX009 (ip), vehicle: saline sonified 105 % of control | dose: 200.0 mg/kg/injection, schedule: Q01DX001 (ip), vehicle: saline with Tween-80 102 % of control | dose: 200.0 mg/kg/injection, schedule: Q01DX009 (ip), vehicle: saline sonified 89 % of control | dose: 400.0 mg/kg/injection, schedule: Q01DX001 (ip), vehicle: saline with Tween-80 101 % of control | dose: 400.0 mg/kg/injection, schedule: Q01DX009 (ip), vehicle: saline sonified 100 % of control

O=[N+]([O-])c1cccc(S(=O)(=O)Nc2cccc(C(F)(F)F)c2)c1
inactive: [1] 96 % of control | [3] 104 % of control | [5] 96 % of control

N#CCC(C#N)C1C=CCC1 (configuration not stated)
inactive: dose: 5.0 mg/kg/injection, schedule: Q01DX001 (ip), vehicle: saline 97 % of control | dose: 10.0 mg/kg/injection, schedule: Q01DX001 (ip), vehicle: saline 97 % of control | dose: 12.5 mg/kg/injection, schedule: Q04DX003 (ip), vehicle: saline with Tween-80 98 % of control

CC(C)CCCC(C)C1CCC2C3=CC=C4CC(OC(=O)c5cc([N+](=O)[O-])cc([N+](=O)[O-])c5)CCC4(C)C3CCC21C (configuration not stated)
inactive: dose: 100.0 mg/kg/injection, schedule: Q01DX001 (ip), vehicle: other 88 % of control | dose: 200.0 mg/kg/injection, schedule: Q01DX001 (ip), vehicle: other 98 % of control

Nc1ccc(OC(F)(F)C(F)Cl)cc1 (configuration not stated)
inactive: [7] 97 % of control | [8] 97 % of control | [9] 99 % of control | [10] 100 % of control | [11] 116 % of control | [12] 101 % of control

CCN1C(=O)/C(=C/c2ccncc2)SC1=S
inactive: dose: 50.0 mg/kg/injection, schedule: Q01DX Z (ip), vehicle: carboxymethylcellulose (CMC) 96 % of control | dose: 100.0 mg/kg/injection, schedule: Q01DX Z (ip), vehicle: carboxymethylcellulose (CMC) 92 % of control | dose: 200.0 mg/kg/injection, schedule: Q01DX Z (ip), vehicle: carboxymethylcellulose (CMC) 94 % of control | dose: 400.0 mg/kg/injection, schedule: Q01DX Z (ip), vehicle: carboxymethylcellulose (CMC) 91 % of control

COc1c(OCC=C(C)C)cc2c(c1O)c(=O)c1ccccc1n2C
inactive: [13] 100 % of control | [14] 93 % of control | [15] 98 % of control

CN(CC1CCCO1)C(=O)Nc1ccc(Cl)cc1 (configuration not stated)
inactive: dose: 100.0 mg/kg/injection, schedule: Q01DX009 (ip), vehicle: carboxymethylcellulose (CMC) 107 % of control | dose: 200.0 mg/kg/injection, schedule: Q01DX009 (ip), vehicle: carboxymethylcellulose (CMC) 96 % of control | dose: 400.0 mg/kg/injection, schedule: Q01DX009 (ip), vehicle: carboxymethylcellulose (CMC) 104 % of control

O=C(O)C1(Cl)CC2C=CC1C2 (configuration not stated)
inactive: dose: 50.0 mg/kg/injection, schedule: Q01DX009 (ip), vehicle: gum acacia 99 % of control | [16] 93 % of control | dose: 100.0 mg/kg/injection, schedule: Q01DX009 (ip), vehicle: gum acacia 89 % of control | [17] 96 % of control | dose: 100.0 mg/kg/injection, schedule: Q04DX003 (ip), vehicle: gum acacia 101 % of control | [18] 93 % of control | dose: 200.0 mg/kg/injection, schedule: Q01DX009 (ip), vehicle: gum acacia 92 % of control | [19] 94 % of control | dose: 200.0 mg/kg/injection, schedule: Q04DX003 (ip), vehicle: gum acacia 95 % of control | [20] 91 % of control

Cc1ccc(S)cc1
inactive: [1] 87 % of control

C/C=C(\C)C(=O)Nc1cccc(O)c1
inactive: [18] 90 % of control | [20] 93 % of control | [21] 90 % of control

O=C(O)COc1cccc([N+](=O)[O-])c1
inactive: [7] 96 % of control | [9] 98 % of control | [11] 94 % of control

NC(N)=N/N=C\c1ccc(O)c(O)c1
inactive: dose: 15.0 mg/kg/injection, schedule: Q01DX Z (ip), vehicle: carboxymethylcellulose (CMC) 97 % of control | dose: 30.0 mg/kg/injection, schedule: Q01DX Z (ip), vehicle: carboxymethylcellulose (CMC) 97 % of control | dose: 60.0 mg/kg/injection, schedule: Q01DX Z (ip), vehicle: carboxymethylcellulose (CMC) 113 % of control | dose: 120.0 mg/kg/injection, schedule: Q01DX Z (ip), vehicle: carboxymethylcellulose (CMC) 116 % of control | dose: 120.0 mg/kg/injection, schedule: Q01DX Z (oral), vehicle: carboxymethylcellulose (CMC) 109 % of control | dose: 240.0 mg/kg/injection, schedule: Q01DX Z (oral), vehicle: carboxymethylcellulose (CMC) 107 % of control | dose: 480.0 mg/kg/injection, schedule: Q01DX Z (oral), vehicle: carboxymethylcellulose (CMC) 103 % of control | dose: 960.0 mg/kg/injection, schedule: Q01DX Z (oral), vehicle: carboxymethylcellulose (CMC) 114 % of control

CCOc1ccc(/C=N/NC(=O)c2ccc(N=NN(C)C)cc2)cc1
inactive: dose: 75.0 mg/kg/injection, schedule: Q04DX003 (ip), vehicle: Klucel (hydroxypropylcellulose) (HPC) 94 % of control | dose: 150.0 mg/kg/injection, schedule: Q04DX003 (ip), vehicle: Klucel (hydroxypropylcellulose) (HPC) 90 % of control | dose: 300.0 mg/kg/injection, schedule: Q04DX003 (ip), vehicle: Klucel (hydroxypropylcellulose) (HPC) 87 % of control

CNc1ccccn1
inactive: dose: 75.0 mg/kg/injection, schedule: Q01DX001 (ip), vehicle: carboxymethylcellulose (CMC) 95 % of control | dose: 150.0 mg/kg/injection, schedule: Q01DX001 (ip), vehicle: carboxymethylcellulose (CMC) 97 % of control | dose: 300.0 mg/kg/injection, schedule: Q01DX001 (ip), vehicle: carboxymethylcellulose (CMC) 101 % of control

Cc1cccn(C(=O)c2ccccc2)c1=N
inactive: [13] 100 % of control | [14] 96 % of control | [15] 102 % of control

Nc1ccc(S(=O)(=O)Nc2ccc([N+](=O)[O-])cc2)cc1
inactive: dose: 25.0 mg/kg/injection, schedule: Q01DX009 (ip), vehicle: saline with Tween-80 98 % of control | [16] 93 % of control | [17] 98 % of control | [19] 110 % of control | dose: 400.0 mg/kg/injection, schedule: Q01DX009 (ip), vehicle: saline with Tween-80 100 % of control

CC(=O)OC12C3CCCC1CCCC2CCC3 (configuration not stated)
inactive: [8] 109 % of control | [10] 93 % of control | [12] 93 % of control

CC(C)C(C(=O)O)c1ccccc1 (configuration not stated)
inactive: [2] 100 % of control | [4] 112 % of control | [6] 107 % of control

O=C1OC(c2cccc3c(F)cccc23)c2ccccc21 (configuration not stated)
inactive: [7] 96 % of control | [9] 95 % of control | [11] 93 % of control

C[N+]1(C)N=C(c2ccccc2)C=C1[O-]
inactive: dose: 100.0 mg/kg/injection, schedule: Q04DX002 (ip), vehicle: other 111 % of control | dose: 200.0 mg/kg/injection, schedule: Q04DX002 (ip), vehicle: other 106 % of control | dose: 400.0 mg/kg/injection, schedule: Q04DX002 (ip), vehicle: other 100 % of control

O=C1OI(Cl)c2ccccc21
inactive: dose: 100.0 mg/kg/injection, schedule: Q04DX002 (ip), vehicle: Klucel (hydroxypropylcellulose) (HPC) 88 % of control | dose: 200.0 mg/kg/injection, schedule: Q04DX002 (ip), vehicle: Klucel (hydroxypropylcellulose) (HPC) 120 % of control

Cc1cccn1C(C)c1ccccc1 (configuration not stated)
inactive: [18] 97 % of control | [20] 94 % of control | [21] 97 % of control

From PubChem BioAssay AID248 (DTP/NCI, 2004)
